Earlier results on one compound are cited in patent US8563014B2, “Modafinil oral lyophilizate” (Teva Sante, priority 2004, dated 2013).

Data set [1] has as its system mice. Conditions: single administration.
Data set [2] relates to monkeys. Conditions: single administration.

On to `NC(=O)C[S+]([O-])C(c1ccccc1)c1ccccc1` (centres unmarked) [modafinil, 2-(benzhydrylsulfinyl)acetamide], for which the Locomotor activity result in data set [1] is “increased locomotor activity”. The Nocturnal activity entry in data set [2] is on record as “increased nocturnal activity”.
